Results: publication PMC7501296, “Rapid and direct control of target protein levels with VHL-recruiting dTAG molecules” (Nature Communications, 2020)
Values joined by “and” are separate entries in the source; they are usually repeats but may differ in a detail not shown here. Identical values can stand only once.

Assays:
FKBP12^F36V-GFP = target: T1, FKBP12^F36V-GFP (Homo sapiens, UniProt P62942, F37V); test: Immunoblot of EWS502 FKBP12F36V-GFP cells; assay type: cell-based; details: 24 h
T1 construct: expressed in transfected cells; host or cells: EWS502 (lentiviral pLEX_305-dTAG-GFP)
T1 sequence (P62942 2-108 F37V limits assumed): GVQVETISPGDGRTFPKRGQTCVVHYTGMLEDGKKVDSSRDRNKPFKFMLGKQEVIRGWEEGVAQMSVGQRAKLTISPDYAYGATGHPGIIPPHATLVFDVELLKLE
Procedure: To generate 293T^WT FKBP12^F36V-KRAS^G12V and 293T^VHL−/− FKBP12^F36V-KRAS^G12V cells, concentrated lentiviral supernatants[6] were applied to 293T^WT and 293T^VHL−/− cells[33] in the presence of 4 µg mL^−1 polybrene and transduced cell lines were selected with 2 µg mL^−1 puromycin. To generate EWS502 FKBP12^F36V-GFP cells, EWS502 cells were transduced with pLEX_305-dTAG-GFP lentiviral supernatant and selected with 1 µg mL^−1 puromycin. To generate EWS502 FKBP12^F36V-EWS/FLI; EWS/FLI^−/− cells, EWS502 cells were co-transduced with pLEX_305-dTAG-EWS/FLI and lentiCRISPR v2-Blast-sgFLI_Ex9 lentiviral supernatants. Cells were then selected with both 1 µg mL^−1 puromycin (pLEX_305-dTAG-EWS/FLI) and 5 µg mL^−1 blasticidin (lentiCRISPR v2-Blast-sgFLI_Ex9). Knockout of endogenous EWS/FLI and the expression of exogenous FKBP12^F36V-EWS/FLI were confirmed by immunoblot and pooled transduced cell populations were employed for this study. […]
PATU-8902 LACZ-FKBP12^F36V and FKBP12^F36V-KRAS^G12V; KRAS^−/− cells and 293T cells were lysed with RIPA buffer supplemented with cOmplete protease inhibitors (Roche), PhosSTOP phosphatase inhibitors (Roche), and 0.1% benzonase (Novagen). […] Membranes were washed three times with TBS-T, incubated with the appropriate fluorescently labeled infrared secondary antibodies, washed again three times with TBS-T, and assessed using an Odyssey CLx Imager (LI-COR)[6],[15]. […]

[1] = system: EWS502 FKBP12^F36V-GFP cells; test: Relative growth of EWS502 FKBP12F36V-GFP cells (CellTiter-Glo); assay type: cell-based
Procedure: Cell viability was assayed in 2D-adherent or ultra-low adherent 3D-spheroids using CellTiter-Glo (Promega)[6],[15]. Luminescence was measured on an Envision 2104 plate reader (PerkinElmer) and Fluostar Omega Reader (BMG Labtech) and data was analyzed using GraphPad PRISM v8. Synergy assessments were performed using CellTiter-Glo (Promega) with the following modifications to the protocol described in the ref. [34]. In brief, EWS502 cells were plated at 1000 cells per well in 50 µL of appropriate media in 384-well white culture plates (Corning) allowed to adhere overnight, and 100 nL of compounds were added using a Janus Workstation pin tool (PerkinElmer) for 72 h. Cell viability was measured by addition of 10 µL of CellTiter-glo (Promega), followed by incubation for 15 minutes at room temperature. Luminescence was measured on an Envision 2104 plate reader (PerkinElmer) and data was analyzed using GraphPad PRISM v8.

MED14 = system: MED14; parameters: method as in PMID 32483291; details: HCT116 cells; cited from earlier work
FKBP12^F36V-EWS/FLI = test: Immunoblot of EWS502 FKBP12F36V-EWS/FLI; EWS/FLI-/- cells; assay type: cell-based
Procedure: To generate 293T^WT FKBP12^F36V-KRAS^G12V and 293T^VHL−/− FKBP12^F36V-KRAS^G12V cells, concentrated lentiviral supernatants[6] were applied to 293T^WT and 293T^VHL−/− cells[33] in the presence of 4 µg mL^−1 polybrene and transduced cell lines were selected with 2 µg mL^−1 puromycin. To generate EWS502 FKBP12^F36V-GFP cells, EWS502 cells were transduced with pLEX_305-dTAG-GFP lentiviral supernatant and selected with 1 µg mL^−1 puromycin. To generate EWS502 FKBP12^F36V-EWS/FLI; EWS/FLI^−/− cells, EWS502 cells were co-transduced with pLEX_305-dTAG-EWS/FLI and lentiCRISPR v2-Blast-sgFLI_Ex9 lentiviral supernatants. Cells were then selected with both 1 µg mL^−1 puromycin (pLEX_305-dTAG-EWS/FLI) and 5 µg mL^−1 blasticidin (lentiCRISPR v2-Blast-sgFLI_Ex9). Knockout of endogenous EWS/FLI and the expression of exogenous FKBP12^F36V-EWS/FLI were confirmed by immunoblot and pooled transduced cell populations were employed for this study. PATU-8902 LACZ-FKBP12^F36V and FKBP12^F36V-KRAS^G12V; KRAS^−/− clones were also employed in this study.
(§1) PATU-8902 LACZ-FKBP12^F36V and FKBP12^F36V-KRAS^G12V; KRAS^−/− cells and 293T cells were lysed with RIPA buffer supplemented with cOmplete protease inhibitors (Roche), PhosSTOP phosphatase inhibitors (Roche), and 0.1% benzonase (Novagen). Proteins were separated using NuPAGE Bolt^TM Bis–Tris gels (Thermo Fisher Scientific) and transferred to nitrocellulose membranes, which were blocked with Odyssey Blocking Buffer (LI-COR) and incubated with primary antibodies overnight. Membranes were washed three times with TBS-T, incubated with the appropriate fluorescently labeled infrared secondary antibodies, washed again three times with TBS-T, and assessed using an Odyssey CLx Imager (LI-COR)[6],[15]. EWS502 cells were lysed with Cell Lysis Buffer (Cell Signaling Technology) supplemented with cOmplete protease inhibitors (Roche). Proteins were separated using SDS-PAGE gels and transferred to PVDF membranes, which were blocked with 5% milk in TBS-T and incubated with primary antibodies overnight. Membranes were washed five times with TBS-T, incubated with the appropriate horseradish peroxidase-conjugated secondary antibodies, washed again five times with TBS-T, and imaged. […]

LACZ-FKBP12^F36V = test: Immunoblot of PATU-8902 LACZ-FKBP12F36V clone; assay type: cell-based; details: PATU-8902 LACZ-FKBP12F36V cells, 4 h
Procedure: as §1

CDK9 = target: T2, CDK9 (Homo sapiens, UniProt P50750); test: Immunoblot, co-treatment with THAL-SNS-032 and/or dTAGV-1 in PATU-8902 LACZ-FKBP12F36V clone; assay type: cell-based
T2 construct: endogenous in cells; host or cells: PATU-8902 LACZ-FKBP12^F36V clone
Procedure: as §1, with “imaged. The following primary antibodies were employed in this study: HA (Cell Signaling Technology #3724 and #2367, dilution at 1:1000), phospho-ERK1/2 T202/Y204 (Cell Signaling Technology #4370, dilution at 1:1000), ERK1/2 (Cell Signaling Technology #4696, dilution at 1:1000), phospho-AKT S473 (Cell Signaling Technology #4060, dilution at 1:1000), AKT (Cell Signaling Technology #2920, dilution at 1:1000), FKBP12 (Abcam #ab24373, dilution at 1:1000), GFP (Cell Signaling Technology #2555, dilution at 1:1000), FLI (Abcam #ab15289, dilution at 1:2000), NKX2-2 (Abcam #ab187375, dilution at 1:1000), GAPDH (Cell Signaling Technology #2118, dilution at 1:3000), Vinculin (Cell Signaling Technology #13901, dilution at 1:3000), β-Actin (Cell Signaling Technology #58169, dilution at 1:3000), and α-Tubulin (Cell Signaling Technology #3873, dilution at 1:5000).” for “imaged.”

Compound	FKBP12F36V-GFP degradation, immunoblot (FKBP12^F36V-GFP)	Relative growth (luminescence values relative to day 0) ([1]; day 0, technical replicates)	Relative growth (luminescence values relative to day 0) ([1]; day 3, technical replicates)	Relative growth (luminescence values relative to day 0) ([1]; day 5, technical replicates)	Relative growth (luminescence values relative to day 0) ([1]; day 7, technical replicates)	Degradation of MED14 (MED14)	FKBP12F36V-EWS/FLI degradation, immunoblot (FKBP12^F36V-EWS/FLI; EWS502 FKBP12F36V-EWS/FLI, EWS/FLI-/- cells)	Time of treatment at which FKBP12F36V-EWS/FLI degradation was evident (FKBP12^F36V-EWS/FLI; EWS502 cells) [h]	Degradation of FKBP12F36V-fusion (LACZ-FKBP12F36V), immunoblot (LACZ-FKBP12^F36V)	Degradation of both LACZ-FKBP12F36V and CDK9 on co-treatment (CDK9; co-treatment dTAGV-1 + THAL-SNS-032, 24 h)	CDK9 protein levels (CDK9; dTAGV-1 alone, 24 h)
CC[C@H](C(=O)N1CCCC[C@H]1C(=O)O[C@H](CCc1ccc(OC)c(OC)c1)c1ccccc1OCC(=O)NCCCCCCOc1cccc2c1C(=O)N(C1CCC(=O)NC1=O)C2=O)c1cc(OC)c(OC)c(OC)c1 (stereo partly shown) [dTAG-13]	effectively degraded	–	–	–	–	–	–	–	–	–	–
CCC(C(=O)N1CCCCC1C(=O)OC(CCc1ccc(OC)c(OC)c1)c1ccccc1OCC(=O)NCCCCCCC(=O)NC(C(=O)N1CC(O)CC1C(=O)NC(C)c1ccc(-c2scnc2C)cc1)C(C)(C)C)c1cc(OC)c(OC)c(OC)c1 (stereo not shown) [dTAG^V-1-NEG]	–	0.9807 and 0.9337 and 1.074 and 0.9661 and 0.9369 and 1.05 and 0.936 and 1.123	8.012 and 8.414 and 8.126 and 8.231 and 8.041 and 7.9927 and 8.641 and 7.789	16.2325 and 15.4561 and 17.0235 and 15.0335 and 14.9405 and 13.797 and 14.8812 and 15.4178	19.7372 and 19.9296 and 22.6222 and 21.4195 and 20.5619 and 20.5847 and 22.7467 and 21.3128	–	–	–	–	–	–
CC[C@H](C(=O)N1CCCC[C@H]1C(=O)O[C@H](CCc1ccc(OC)c(OC)c1)c1ccccc1OCC(=O)NCCCCCCC(=O)N[C@H](C(=O)N1C[C@H](O)C[C@H]1C(=O)N[C@@H](C)c1ccc(-c2scnc2C)cc1)C(C)(C)C)c1cc(OC)c(OC)c(OC)c1 [dTAG^V-1]	effectively degraded	1.01 and 0.9846 and 0.9416 and 1.081 and 0.9895 and 0.8796 and 1.056 and 1.058	7.436 and 7.522 and 7.571 and 8.146 and 7.791 and 7.539 and 7.5229 and 8.295	12.9905 and 13.8226 (2×) and 13.4717 and 14.0465 and 14.5379 and 14.3196 and 15.9343	19.3543 and 18.2942 and 18.0829 and 20.64 and 18.2038 and 18.0695 and 17.6427 and 20.3483	effective degradation	only susceptible to degradation upon treatment with dTAG^V-1	≤ 1	effective degradation	pronounced degradation	did not alter
